Literature values in patent publication US12458707B2, “Targeted delivery of immunoregulatory drugs” (The Brigham and Women's Hospital, Inc., priority 2014, dated 2025).

Test system: NOD mice
Details: 2.5 mg/kg/day every other day

C=CC[C@@H]1/C=C(\C)C[C@H](C)C[C@H](OC)[C@H]2O[C@@](O)(C(=O)C(=O)N3CCCC[C@H]3C(=O)O[C@H](/C(C)=C/[C@@H]3CC[C@@H](O)[C@H](OC)C3)[C@H](C)[C@@H](O)CC1=O)[C@H](C)C[C@@H]2OC [TAC, Tacrolimus]
suppression of T1D: efficiently suppress T1D
